Values after ≈ are worked out from the molar mass of the structure shown.
Columns and labels:
[1] = system: coxsackievirus type B4 (CB4); assay: Inhibition of CB4 plaque formation in LLC-MK2 cells; format: cell-based; conditions: for IC50: Coxsackievirus, plaque reduction, LLC-MK2 cells, 37° C.; for CI CB4 (C)/(A): CI = CD50 (LLC-MK2)/IC50 (plaque)
in vitro [2] = conditions: monkey, llc-mk2 cells
[3] = system: poliovirus type 2 (Polio2); assay: microbe, parasite or virus in culture; format: cell-based; conditions: for IC50: Enterovirus C, LLC-MK2, read-out: IC50 Polio2; for CI Polio2 (C)/(A): CI = CD50 (LLC-MK2)/IC50 (plaque)
[4] = system: enterovirus type 70 (EV70); assay: Inhibition of EV70 plaque formation in LLC-MK2 cells; format: cell-based; conditions: for CI EV70 (C)/(A): CI = CD50 (LLC-MK2)/IC50 (plaque); for IC50: Enterovirus D, plaque reduction, LLC-MK2 cells, 33° C.
[5] = system: rhinovirus type 14 (HRV14); assay: Inhibition of HRV14 plaque formation in HeLa cells; format: cell-based; conditions: for IC50: Enterovirus, HRV14, plaque reduction, HeLa cells, 33° C.; for CI HRV14 (D)/(B): CI = CD50 (HeLa)/IC50 (plaque)
[6] = system: enterovirus type 70 (EV70); assay: Inhibition of EV70 cytopathogenic effect (CPE) in LLC-MK2 cells; format: cell-based; conditions: Enterovirus D; * Virus CPE inhibition assay, LLC-MK2 cells, 33° C.
[7] = system: coxsackievirus type B4 (CB4); assay: Inhibition of CB4 cytopathogenic effect (CPE) in LLC-MK2 cells; format: cell-based; conditions: for IC50: Coxsackievirus, * Virus CPE inhibition assay, LLC-MK2 cells, 37° C.
in vitro [8] = conditions: human, hela cells

Row | Compound | IC50 [1] | CC50 (in vitro [2]) | IC50 [3] | CI EV70 (C)/(A) [4] | IC50 [4] | IC50 [5] | IC50 [6] | IC50 [7] | CI CB4 (C)/(A) [1] | CC50 (in vitro [8]) | CI HRV14 (D)/(B) [5] | CI Polio2 (C)/(A) [3] | CI CB4 (C)/(A) ([7]; CI = CD50 (LLC-MK2)/IC50 (virus CPE))
1 | Cc1cc2nc(CNc3ccncc3)[nH]c2cc1F [XXX] | > 50 µg/mL | > 100 µg/mL | > 100 µg/mL | > 8 | 12 µg/mL (≈ 46.8 µM) | 8.6 µg/mL (≈ 33.6 µM) | – | – | – | – | – | – | –
2 | Ic1ccc(-n2c(CNc3ccncc3)nc3ccccc32)cc1 [LXI] | – | > 100 µg/mL | – | – | – | – | > 100 µg/mL | > 100 µg/mL | – | – | – | – | –
3 | Fc1ccc2[nH]c(CNc3ccncc3)nc2c1 [II] | 6 µg/mL (≈ 24.8 µM) | 177 µg/mL (≈ 730 µM) | > 25 µg/mL | 126 | 1.4 µg/mL (≈ 5.78 µM) | 14.5 µg/mL (≈ 59.9 µM) | – | – | 29 | 56.2 µg/mL (≈ 232 µM) | 4 | – | –
4 | CC(=O)OCCOCn1c(CNc2ccncc2)nc2ccccc21 [LV] | 11.9 µg/mL (≈ 35 µM) | > 100 µg/mL | 17.6 µg/mL (≈ 51.7 µM) | > 63 | 1.6 µg/mL (≈ 4.7 µM) | 15.6 µg/mL (≈ 45.8 µM) | – | – | 8 | > 100 µg/mL | > 6 | > 6 | –
5 | Cc1cc(C)c(-n2c(CNc3ccncc3)nc3ccccc32)c(C)c1 [LXXII] | – | > 100 µg/mL | – | – | – | – | > 100 µg/mL | > 100 µg/mL | – | – | – | – | –
6 | CCCCn1c(CNc2ccncc2)nc2ccccc21 [XV] | 0.37 µg/mL (≈ 1.32 µM) | > 2000 µg/mL | 3.2 µg/mL (≈ 11.4 µM) | > 1,429 | 1.4 µg/mL (≈ 4.99 µM) | > 50 µg/mL | – | – | > 5,405 | – | – | > 625 | –
7 | Fc1ccc(-n2c(CNc3ccncc3)nc3ccccc32)cc1 [XXIII] | 0.83 µg/mL (≈ 2.61 µM) | > 2000 µg/mL | 7.8 µg/mL (≈ 24.5 µM) | > 1,818 | 1.1 µg/mL (≈ 3.46 µM) | 30 µg/mL (≈ 94.2 µM) | – | – | > 2,410 | – | – | > 256 | –
8 | CC(C)CCn1c(CNc2ccncc2)nc2ccccc21.Cl [L, 1-isoamyl-2-(4-pyridylaminomethyl)benzimidazole hydrochloride] | 0.34 µg/mL | 1410 µg/mL | 4.3 µg/mL | 1,010 | 1.4 µg/mL | > 100 µg/mL | – | – | 4,159 | – | – | 329 | –
9 | c1ccc(CCCn2c(CNc3ccncc3)nc3ccccc32)cc1 [LVI] | – | > 100 µg/mL | – | – | – | – | > 100 µg/mL | > 100 µg/mL | – | – | – | – | –
10 | CCCCCn1c(CNc2ccncc2)nc2ccccc21 [XVI] | < 0.5 µg/mL | 1410 µg/mL (≈ 4800 µM) | 19 µg/mL (≈ 64.5 µM) | 643 | 2.2 µg/mL (≈ 7.47 µM) | > 50 µg/mL | – | – | > 2,828 | – | – | 74 | –
11 | OCCCCn1c(CNc2ccncc2)nc2ccccc21 [LII] | – | > 100 µg/mL | – | – | – | – | > 100 µg/mL | 17.8 µg/mL (≈ 60.1 µM) | – | – | – | – | > 6

From US4818761A, “2-(4-pyridylaminomethyl)-benzimidazole derivatives having antiviral activity” (priority 1986, dated 1989)
